Experimental findings from ChEMBL document CHEMBL5321270, “Discovery of Pyrazolone Carbothioamide Derivatives as Inhibitors of the Pdr1-KIX Interaction for Combinational Treatment of Azole-Resistant Candidiasis” (J Med Chem, 2023) are described below.

≈ marks a conversion by molar mass, not a printed value. Calls of active or inactive are those of the source. The rule behind the calls is not given here.

What is called MIC is the lowest concentration found to suppress growth. One may read the inhibition as the relative decrease from the control value, in per cent. A word on the AUC(0-t): it is the area under the concentration-time curve up to a stated or last time point. What is called Tmax is the time at which the peak concentration occurs.

The test system of one data set is Candida parapsilosis. Put plainly: Antifungal activity against Candida parapsilosis 20090 assessed as fungal growth inhibition incubated for 48 hrs by microplate reader assay. Particulars: Lodderomyces parapsilosis. Type of data set: functional.
Data set [1] has as its system Nakaseomyces glabratus. The data set is described as follows: Synergistic antifungal activity against fluconazole-resistant Candida glabrata 0161 assessed as inhibition of fungal biofilm formation at 32 ug/ml incubated for 24 hrs in presence of fluconazole by XXT reduction menadione assay. Type of data set: functional.
The test system of a further data set is Candida albicans. Put plainly: Antifungal activity against Candida albicans assessed as fungal growth inhibition incubated for 48 hrs by microplate reader assay. Type of data set: functional.
In data set [2] the test system is Nakaseomyces glabratus. Put plainly: Antifungal activity against fluconazole-resistant Candida glabrata 0161 assessed as increase in Nile red accumulation at 50 uM incubated for 30 mins by nile red staining based confocal microscopic analysis. Type of data set: functional, organism-based.
In data set [3] the test system is Nakaseomyces glabratus. Put plainly: Antifungal activity against fluconazole-resistant Candida glabrata 0161 assessed as inhibition of fungal growth at 2 to 16 ug/ml incubated for 48 hrs by Spot plating assay. The following applies: dose 2-16 µg/ml. Type of data set: functional, organism-based.
A short description of data set [4]: AUC (0-t) in ICR mouse at 10 mg/kg,po measured upto 24 hrs by LC-MS/MS analysis. Type of data set: ADME, organism-based. Details: time < 24 hrs, dose 10 mg/kg, route po. The following applies: in vivo.
The nature of data set [5]: Tmax in ICR mouse at 10 mg/kg,po measured upto 24 hrs by LC-MS/MS analysis. Type of data set: ADME, organism-based. The following applies: in vivo.
For another data set, the system named is [Candida] auris. Put plainly: Antifungal activity against Candida auris 15448 assessed as fungal growth inhibition incubated for 48 hrs by microplate reader assay. Type of data set: functional. The following applies: Candidozyma auris.
The subject of data set [6] is Nakaseomyces glabratus. The data set is described as follows: Antifungal activity against fluconazole-resistant Candida glabrata 0161 assessed as inhibition of fungal biofilm formation at 32 ug/ml incubated for 24 hrs by XXT reduction menadione assay. Type of data set: functional.
Data set [7] concerns Nakaseomyces glabratus. Put plainly: Synergistic antifungal activity against fluconazole-resistant Candida glabrata 0161 assessed as downregulation of ERG11 gene expression at 4 ug/ml in presence of fluconazole by RT-PCR analysis. Type of data set: functional, organism-based. Particulars: dose 4.0 µg/ml.
Data set [8] relates to Nakaseomyces glabratus. The data set is described as follows: Synergistic antifungal activity against fluconazole-resistant Candida glabrata 0161 assessed as downregulation of PDR1 gene expression at 4 ug/ml in presence of fluconazole by RT-PCR analysis. Type of data set: functional, organism-based. The following applies: dose 4.0 µg/ml.
Data set [9] concerns Nakaseomyces glabratus. Put plainly: Synergistic antifungal activity against fluconazole-resistant Candida glabrata 0161 assessed as downregulation of CDR1 gene expression at 4 ug/ml in presence of fluconazole by RT-PCR analysis. Type of data set: functional, organism-based. The following applies: dose 4.0 µg/ml.

In the case of `Nc1cc(=O)n(C(=S)Nc2ccc3c(c2)CCC3)[nH]1`, the MIC is 4 µg/mL (≈ 14.6 µM) in the data set with Candida parapsilosis, 4 µg/mL (≈ 14.6 µM) in the data set on Candida albicans and 2 µg/mL (≈ 7.29 µM) in [Candida] auris. The inhibition at 32 µg/mL with Nakaseomyces glabratus [1] is 73%; in the data set on Nakaseomyces glabratus [6], 40%. Also, the outcome with Nakaseomyces glabratus [2], in the data set on Nakaseomyces glabratus [3], in the data set on Nakaseomyces glabratus [7], with Nakaseomyces glabratus [8] and with Nakaseomyces glabratus [9] was Active. This molecule also registered an exposure AUC(0-t) at 24 h in [4] of 389 ng·h/mL. Also, the Tmax in [5] amounted to 15 min.
